Where two headings read alike, the source gives them in different places.
Assays:
muscarinic receptor M4 = molecular target: T1, muscarinic receptor M4 (Homo sapiens, UniProt P08173); assay: Muscarinic receptor subtype M4 binding assay, radioligand displacement; details: [3]H-methylscopolamine displacement, membranes from recombinant mammalian cell lines
T1 construct: expressed in transfected cells
T1 sequence (P08173 1-479): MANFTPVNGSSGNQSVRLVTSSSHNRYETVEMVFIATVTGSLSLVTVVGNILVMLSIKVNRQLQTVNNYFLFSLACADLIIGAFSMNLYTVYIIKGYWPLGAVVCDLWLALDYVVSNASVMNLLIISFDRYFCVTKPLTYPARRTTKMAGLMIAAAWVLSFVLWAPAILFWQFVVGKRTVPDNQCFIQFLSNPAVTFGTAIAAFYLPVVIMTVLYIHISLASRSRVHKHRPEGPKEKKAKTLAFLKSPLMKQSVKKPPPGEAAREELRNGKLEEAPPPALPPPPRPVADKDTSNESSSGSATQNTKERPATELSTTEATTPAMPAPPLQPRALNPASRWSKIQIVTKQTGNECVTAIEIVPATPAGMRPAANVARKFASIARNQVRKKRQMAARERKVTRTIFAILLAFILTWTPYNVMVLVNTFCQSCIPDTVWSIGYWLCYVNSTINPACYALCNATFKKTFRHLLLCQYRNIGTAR
Method: (§1) Muscarinic receptor subtype M1-M5 binding assays were carried out. Briefly, [3]H-methylscopolamine was allowed to bind to membranes from various recombinant mammalian cell lines, each with an over-expression of a particular receptor subtype.
(§2) Muscarinic receptor subtype M1-M5 binding assays were performed.

muscarinic receptor M3 = molecular target: T2, muscarinic receptor M3 (Homo sapiens, UniProt P20309); assay: Muscarinic receptor subtype M3 binding assay, radioligand displacement; details: [3]H-methylscopolamine displacement, membranes from recombinant mammalian cell lines; read-out: Ki values, receptor subtype M3
T2 construct: expressed in transfected cells
T2 sequence (P20309 whole entry): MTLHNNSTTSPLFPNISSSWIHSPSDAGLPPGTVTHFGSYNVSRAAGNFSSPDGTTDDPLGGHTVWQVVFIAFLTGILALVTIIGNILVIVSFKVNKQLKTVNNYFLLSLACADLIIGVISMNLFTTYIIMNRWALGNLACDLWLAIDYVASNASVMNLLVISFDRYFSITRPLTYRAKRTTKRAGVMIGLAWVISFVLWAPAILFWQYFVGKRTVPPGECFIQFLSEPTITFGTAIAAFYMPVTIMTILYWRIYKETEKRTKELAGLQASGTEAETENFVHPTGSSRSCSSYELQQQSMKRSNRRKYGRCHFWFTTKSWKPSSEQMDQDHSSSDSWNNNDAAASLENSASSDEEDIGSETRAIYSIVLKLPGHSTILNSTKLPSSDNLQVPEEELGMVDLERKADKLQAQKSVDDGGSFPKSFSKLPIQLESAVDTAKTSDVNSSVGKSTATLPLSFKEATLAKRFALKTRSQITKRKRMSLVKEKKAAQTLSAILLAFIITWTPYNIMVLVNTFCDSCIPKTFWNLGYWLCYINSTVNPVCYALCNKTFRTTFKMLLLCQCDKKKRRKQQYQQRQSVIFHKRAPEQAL
Method: as §1, §2

muscarinic receptor M5 = molecular target: T3, muscarinic receptor M5 (Homo sapiens, UniProt P08912); assay: Muscarinic receptor subtype M5 binding assay, radioligand displacement; details: [3]H-methylscopolamine displacement, membranes from recombinant mammalian cell lines; read-out: Ki values, receptor subtype M5
T3 construct: expressed in transfected cells
T3 sequence (P08912 1-532): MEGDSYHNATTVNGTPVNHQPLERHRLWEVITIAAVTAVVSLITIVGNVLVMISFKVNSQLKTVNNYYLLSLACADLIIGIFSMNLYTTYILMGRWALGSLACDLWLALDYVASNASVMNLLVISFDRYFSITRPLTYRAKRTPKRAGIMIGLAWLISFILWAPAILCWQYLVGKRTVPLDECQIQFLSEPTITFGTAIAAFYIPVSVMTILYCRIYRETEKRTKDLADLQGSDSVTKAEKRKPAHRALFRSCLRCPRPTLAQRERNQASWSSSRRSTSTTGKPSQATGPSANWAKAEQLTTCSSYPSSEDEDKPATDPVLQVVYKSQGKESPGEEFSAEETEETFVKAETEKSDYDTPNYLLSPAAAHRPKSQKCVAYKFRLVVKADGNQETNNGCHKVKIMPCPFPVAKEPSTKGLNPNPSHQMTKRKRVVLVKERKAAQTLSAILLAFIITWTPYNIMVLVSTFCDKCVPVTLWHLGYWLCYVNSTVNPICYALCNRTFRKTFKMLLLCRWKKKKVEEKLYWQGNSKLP
Method: as §1, §2

muscarinic receptor M2 = molecular target: T4, muscarinic receptor M2 (Homo sapiens, UniProt P08172); assay: Muscarinic receptor subtype M2 binding assay, radioligand displacement; details: [3]H-methylscopolamine displacement, membranes from recombinant mammalian cell lines
T4 construct: expressed in transfected cells
T4 sequence (P08172 1-466): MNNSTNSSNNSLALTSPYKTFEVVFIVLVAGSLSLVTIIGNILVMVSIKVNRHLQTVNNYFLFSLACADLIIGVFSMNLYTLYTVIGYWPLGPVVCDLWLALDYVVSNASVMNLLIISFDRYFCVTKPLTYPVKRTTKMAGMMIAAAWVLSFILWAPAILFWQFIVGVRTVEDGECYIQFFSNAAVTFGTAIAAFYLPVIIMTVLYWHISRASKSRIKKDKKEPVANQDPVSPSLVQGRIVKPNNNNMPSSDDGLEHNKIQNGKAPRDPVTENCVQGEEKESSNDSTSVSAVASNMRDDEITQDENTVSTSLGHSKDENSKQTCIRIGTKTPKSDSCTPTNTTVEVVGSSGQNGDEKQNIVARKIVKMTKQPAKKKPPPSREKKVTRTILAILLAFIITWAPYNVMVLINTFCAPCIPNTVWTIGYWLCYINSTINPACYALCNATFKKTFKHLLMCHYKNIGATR
Method: as §1, §2

[1] = tested on: methacholine-induced bronchoconstriction in Balb/c mice; assay: Bronchodilatory effect of inhaled compounds, Example VIII (% inhibition); type: in vivo; details: inhalation of 1 mg/mL FBE; for % inhibition of bronchoconstriction after 10 min: 10 min after dosing; for % inhibition of bronchoconstriction after 36 h: 36 h after dosing
Source text: Bronchoconstriction was induced in BALB/c mice by administration of methacholine.

muscarinic receptor M1 = molecular target: T5, muscarinic receptor M1 (Homo sapiens, UniProt P11229); assay: Muscarinic receptor subtype M1 binding assay, radioligand displacement
T5 construct: expressed in transfected cells
T5 sequence (P11229 1-460): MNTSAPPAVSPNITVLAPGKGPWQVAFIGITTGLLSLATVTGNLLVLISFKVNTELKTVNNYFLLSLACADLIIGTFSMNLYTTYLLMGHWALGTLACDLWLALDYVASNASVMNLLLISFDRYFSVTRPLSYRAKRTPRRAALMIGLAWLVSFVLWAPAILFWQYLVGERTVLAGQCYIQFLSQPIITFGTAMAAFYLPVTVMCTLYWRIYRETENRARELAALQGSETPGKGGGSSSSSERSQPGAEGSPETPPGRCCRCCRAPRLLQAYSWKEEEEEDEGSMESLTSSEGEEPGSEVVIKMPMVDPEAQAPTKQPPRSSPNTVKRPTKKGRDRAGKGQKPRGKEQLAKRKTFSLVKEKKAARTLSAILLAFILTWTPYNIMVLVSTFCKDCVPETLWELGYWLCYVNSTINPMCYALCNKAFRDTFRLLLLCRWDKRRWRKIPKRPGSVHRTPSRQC
Method: as §1, §2

[2] = Pharmacokinetics of inhaled tolterodine, plasma levels; type: in vivo, Balb/c mice; details: FIG. 7
Method: Blood samples were collected at 2.5 minutes, 15 minutes, 30 minutes, 1 hour or 2 hours after aerosol drug treatment. Blood samples were prepared as in example VI. Samples were analyzed using a PE SCIEX API 3000 mass spectrometer. Chromatographically, the analyte and the internal standard were resolved on a Zorbax ACE Phenyl column using a gradient elution. The limit of quantitation was 100 pg/mL.

[3] = [3]H-methylscopolamine displacement, membranes from recombinant mammalian cell lines

Compound `Cc1ccc(O)c(C(CC[N+]2(C)CCCCCC2)c2ccccc2)c1.[I-]` (centres unmarked) [Example 34, 1-[3-(2-Hydroxy-5-methylphenyl)-3-phenylpropyl]-1-methylazepanium iodide] has a Ki (muscarinic receptor M4) of 2.9 nM, a Ki (muscarinic receptor M3) of 4.7 nM and a Ki (muscarinic receptor M5) of 1.8 nM. The Ki (muscarinic receptor M2) was 1 nM, the “% inhibition of bronchoconstriction after 10 min” value (shortened to “% inhibition … after 10 min”) [1] was 100% and the “% inhibition of bronchoconstriction after 36 h” value (“% inhibition … after 36 h” for short) [1] was 0%. For the same compound, the Ki (muscarinic receptor M1; [3]) was 1 nM.

For `CCCC(=O)Oc1ccc(C)cc1[C@H](CC[N+](C)(C(C)C)C(C)C)c1ccccc1.[I-]` [Example 21, (3R)-3-[2-(Butyryloxy)-5-methylphenyl]-N,N-diisopropyl-N-methyl-3-phenylpropan-1-aminium iodide], the melting point was 175 °C (dec.).

In the case of `COc1ccc(C)cc1[C@H](CC[N+](C)(C(C)C)C(C)C)c1ccccc1.[I-]` [Example 20, (3R)-N,N-diisopropyl-3-(2-methoxy-5-methylphenyl)-N-methyl-3-phenylpropan-1-aminium iodide], the melting point is reported as 211 °C (dec.).

For `Cc1ccc(O)c([C@H](CCN(C(C)C)C(C)C)c2ccccc2)c1` [Tolterodine, 2-[(1R)-3-(diisopropylamino)-1-phenylpropyl]-4-methylphenol, reference compound], the Plasma levels ([2]; inhalation of nebulized solution at 0.1 mg/ml, limit of quantitation 100 pg/mL) was “at or below detection limits”, the “absorption into the circulation” value ([2]; inhalation of nebulized solutions at 0.1, 0.5 or 1.0 mg/ml) was “rapidly absorbed into the circulation” and the Ki (muscarinic receptor M4) was 1.5 nM. The Ki (muscarinic receptor M5) was 0.55 nM and the Ki (muscarinic receptor M1) was 0.87 nM.

In the case of `Cc1ccc(O)c(C(CC[N+]2(C)CCCCC2)c2ccccc2)c1.[I-]` (centres unmarked) [Example 33, 1-[3-(2-Hydroxy-5-methylphenyl)-3-phenylpropyl]-1-methylpiperidinium iodide], the Ki (muscarinic receptor M4) is reported as 3.6 nM, the Ki (muscarinic receptor M3) is reported as 3.2 nM and the Ki (muscarinic receptor M5) is reported as 0.9 nM. The Ki (muscarinic receptor M2) was 1.7 nM, the “% inhibition … after 10 min” value [1] was 100% and the “% inhibition … after 36 h” value [1] was 0%. It also gave a Ki (muscarinic receptor M1; [3]) of 1.1 nM.

With `Cc1ccc(O)c([C@H](CC[N+](C)(C(C)C)C(C)C)c2ccccc2)c1.[Br-]` [Example 3] the melting point was 189 to 191 °C (dec.), the Ki (muscarinic receptor M4) was 0.72 nM and the Ki (muscarinic receptor M3) was 0.43 nM. The Ki (muscarinic receptor M5) was 0.26 nM, the Ki (muscarinic receptor M2) was 0.52 nM and the “% inhibition … after 10 min” value [1] was 100%. The “% inhibition … after 36 h” value [1] was 93% and the Ki (muscarinic receptor M1; [3]) was 0.3 nM.

For `Cc1ccc(O)c(C(CC[N+]2(C)CCCC2)c2ccccc2)c1.[I-]` (centres unmarked) [Example 31, 1-[3-(2-Hydroxy-5-Methylphenyl)-3-phenylpropyl]-1-methylpyrrolidinium iodide], the Ki (muscarinic receptor M4) was 4.2 nM, the Ki (muscarinic receptor M3) was 3.3 nM and the Ki (muscarinic receptor M5) was 1.6 nM. For the same compound, the Ki (muscarinic receptor M2) was 2.2 nM, the “% inhibition … after 10 min” value [1] was 100% and the “% inhibition … after 36 h” value [1] was 0%. For the same compound, the Ki (muscarinic receptor M1; [3]) was 1.2 nM.

Work on `CC(C)N(CC[C@H](c1ccccc1)c1cc(CO)ccc1O)C(C)C` [Hydroxytolterodine, 2-[(1R)-3-(diisopropylamino)-1-phenylpropyl]-4-(hydroxymethyl)phenol, reference compound] yielded a Ki (muscarinic receptor M4) of 1.4 nM, a Ki (muscarinic receptor M3) of 1.4 nM and a Ki (muscarinic receptor M5) of 0.48 nM. It also gave a Ki (muscarinic receptor M2) of 0.33 nM and a Ki (muscarinic receptor M1; [3]) of 1.5 nM.

`CC(C)[N+](C)(CC[C@H](c1ccccc1)c1cc(CO)ccc1O)C(C)C.[I-]` [Example 8, (3R)-3-[2-Hydroxy-5-(hydroxymethyl)phenyl]-N,N-diisopropyl-N-methyl-3-phenylpropan-1-aminium iodide] gave a Ki (muscarinic receptor M4) of 1.07 nM, a Ki (muscarinic receptor M3) of 0.92 nM and a Ki (muscarinic receptor M5) of 0.68 nM. The Ki (muscarinic receptor M2) was 1.08 nM, the “% inhibition … after 10 min” value [1] was 82% and the “% inhibition of bronchoconstriction after 24 h” value ([1]; 24 h after dosing) was 60%. The “% inhibition of bronchoconstriction after 48 h” value ([1]; 48 h after dosing) was 15% and the Ki (muscarinic receptor M1; [3]) was 0.86 nM.

For `CC[N+]1(CCC(c2ccccc2)c2cc(C)ccc2O)CCCC1.[I-]` (centres unmarked) [Example 32, 1-Ethyl-1-(3-(2-hydroxy-5-methylphenyl)-3-phenylpropyl]pyrrolidinium iodide], the Ki (muscarinic receptor M4) was 3.8 nM, the Ki (muscarinic receptor M3) was 3.1 nM and the Ki (muscarinic receptor M5) was 1.2 nM. For the same compound, the Ki (muscarinic receptor M2) was 1.7 nM, the “% inhibition … after 10 min” value [1] was 100% and the “% inhibition … after 36 h” value [1] was 17%. For the same compound, the Ki (muscarinic receptor M1; [3]) was 1.1 nM.
